One data set relates to breast cancer. Kind of data set: Docetaxel alone, several in-house proprietary studies. It is filed as in vivo, human. The protocol:
Docetaxel alone, in several in-house proprietary studies, gave overall response rates of 40 to 43% (in second line therapy at a dose of 100 mg/m^2), 48% (in first line therapy at a dose of 75 mg/m^2) and 61% (in first line therapy at a dose of 100 mg/m^2).

The conditions of data set [1]: treatments based on taxoid derivatives, including docetaxel; cited from earlier work.

Each structure is given as a SMILES string.

Regarding `CC(=O)O[C@@]12CO[C@@H]1C[C@H](O)[C@@]1(C)C(=O)[C@H](O)C3=C(C)[C@@H](OC(=O)[C@H](O)[C@@H](NC(=O)OC(C)(C)C)c4ccccc4)C[C@@](O)([C@@H](OC(=O)c4ccccc4)[C@H]21)C3(C)C` [docetaxel], the overall response rate was 48% in the data set on breast cancer (first line therapy, 75 mg/m^2); 61% with breast cancer (first line therapy, 100 mg/m^2); 40 to 43% with breast cancer (second line therapy, 100 mg/m^2). In data set [1], the toxicities result is “myelosuppression, neutropenia, hypersensitivity, peripheral neuropathy, and fluid retention”.

These data come from patent US6333348A, “Use of docetaxel for treating cancers” (Aventis Pharma S.A., priority 2000, dated 2001).
